Experimental data from US8735391B2, “Synthesis of functionalized octahydro-isoquinolin-1-one-8-carboxamides, octahydro-isoquinolin-1-one-8-carboxylic esters and analogs, and therapeutic methods” (University of Kansas, priority 2008, dated 2014).

Columns and labels:
[1] = biological target: T1, KOR (Homo sapiens, UniProt P41145); test: Opioid secondary binding, KOR (Tables 4, 5, 8, 9); conditions: Opioid secondary binding activity for Formula 10 analogs; read-out: KOR, Ki
[2] = biological target: T1, KOR; test: [35S]GTPγS binding functional agonist assay on membranes of CHO cells expressing hKOR (reference agonist U69593); format: biochemical; design: expressed in transfected cells; host or cells: CHO cells, stably transfected; crude membrane fractions; conditions: for KOR agonist (average percent efficacy relative to cognate agonist): test compound at 10 micromolar, N=4, reference agonist = 100%, CHO-cell line expressing hKOR; for Emax values relative to U69593: [35S]GTPγS data-fit top relative to reference agonist U69593
Method: The compounds prepared herein were tested for bioactivity with opioid receptors. Agonist assays: Data represent the percent efficacy (relative to cognate agonist) of the test compound at 10 micromolar. The response to a saturating concentration of a reference antagonist or to vehicle (usually none or negligible) is set to 0%. […] The response inhibition elicited by a saturating concentration of reference antagonist is set to 100%; the response inhibition (usually none or negligible) elicited by vehicle is set to 0%. The following tables provide data related to the bioactivity for opioid receptors of the compounds described herein.
Table 6 provides data that represent the average percent efficacy (N=4; relative to cognate agonist) of the test compound at 10 micromolar concentration. The response to a saturating concentration of cognate/reference agonist is set to 100%; the response to a saturating concentration of a reference antagonist or to vehicle (usually none or negligible) is set to 0%. All functional assays are performed on stably transfected CHO-cell lines expressing hKOR, hMOR or hDOR.
(§1) Serial dilutions of the test and reference compounds are made in binding buffer at 2× assay concentration (final assay concentrations ranging from 0.1 nM to 10 μM). Crude membrane fractions (1.8 to 3.5 cm2/well) (prepared from 10-cm plates by harvesting PBS-rinsed monolayers, resuspending and lysing in chilled, hypotonic 50 mM Tris-HCl, pH 7.4, centrifuging at 20,000×g, decanting the supernatant and storing at −80 degrees centigrade; typically, one 10-cm plate provides sufficient material for 24 wells) are resuspended in 1.2 ml of assay buffer containing 20 μM GDP, wheat germ agglutinin (WGA)-coated scintillation proximity beads (2.4 mg), and [35S]GTPγS (300 pM final). The suspension is then added (50 μl/well) to 50 μl of the 2× test or reference compounds (each concentration assayed in triplicate) in flexible transparent PET 96-well plates. The reaction plate is sealed and incubated for 90 min at room temperature, then centrifuged for 5 min at 216×g, and finally loaded into a Wallac MicroBeta TriLux counter. Non-specific [35S]GTPγS binding is assessed at the maximum concentration of reference agonist in the presence of 10 μM antagonist. The background signal is measured at 10 μM reference agonist in the presence of 10 μM unlabeled GTPγS. Raw data (dpm) representing total [35S]GTPγS binding (i.e., specific+non-specific binding) are calculated as a percentage of the maximum response by the reference agonist (in this case U69593).
as §1, with “GTPγS.” for “GTPγS. Raw data (dpm) representing total [35S]GTPγS binding (i.e., specific+non-specific binding) are calculated as a percentage of the maximum response by the reference agonist (in this case U69593).”

[3] = biological target: MOR (Homo sapiens, UniProt P35372); test: Opioid secondary binding, MOR (Tables 4, 5, 8); conditions: Opioid secondary binding activity for Formula 10 analogs; read-out: MOR, Ki
[4] = biological target: DOR (Homo sapiens, UniProt P41143); test: Opioid secondary binding, DOR (Table 4); conditions: Opioid secondary binding activity for Formula 10 analogs
Sequence of DOR (P41143 whole entry): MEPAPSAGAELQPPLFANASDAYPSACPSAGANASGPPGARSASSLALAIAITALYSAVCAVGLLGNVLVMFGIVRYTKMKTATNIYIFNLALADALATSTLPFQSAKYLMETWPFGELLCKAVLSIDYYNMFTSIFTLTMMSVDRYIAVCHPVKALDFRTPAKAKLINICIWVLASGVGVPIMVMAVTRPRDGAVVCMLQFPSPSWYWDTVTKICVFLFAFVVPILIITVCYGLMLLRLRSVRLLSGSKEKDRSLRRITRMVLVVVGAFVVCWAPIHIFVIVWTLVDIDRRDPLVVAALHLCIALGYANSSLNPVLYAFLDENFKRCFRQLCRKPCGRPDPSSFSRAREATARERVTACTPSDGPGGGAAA

Sequence of MOR (P35372 whole entry): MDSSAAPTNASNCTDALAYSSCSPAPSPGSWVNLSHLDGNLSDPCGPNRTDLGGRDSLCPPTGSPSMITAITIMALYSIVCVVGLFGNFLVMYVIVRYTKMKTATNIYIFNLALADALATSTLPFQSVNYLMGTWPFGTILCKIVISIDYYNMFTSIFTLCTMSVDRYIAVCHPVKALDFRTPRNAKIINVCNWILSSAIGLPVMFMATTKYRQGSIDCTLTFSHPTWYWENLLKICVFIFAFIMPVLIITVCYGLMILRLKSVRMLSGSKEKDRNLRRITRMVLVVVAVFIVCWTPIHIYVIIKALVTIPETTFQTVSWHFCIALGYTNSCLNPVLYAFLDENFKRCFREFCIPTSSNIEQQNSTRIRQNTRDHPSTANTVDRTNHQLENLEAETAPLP
T1 sequence (P41145 whole entry): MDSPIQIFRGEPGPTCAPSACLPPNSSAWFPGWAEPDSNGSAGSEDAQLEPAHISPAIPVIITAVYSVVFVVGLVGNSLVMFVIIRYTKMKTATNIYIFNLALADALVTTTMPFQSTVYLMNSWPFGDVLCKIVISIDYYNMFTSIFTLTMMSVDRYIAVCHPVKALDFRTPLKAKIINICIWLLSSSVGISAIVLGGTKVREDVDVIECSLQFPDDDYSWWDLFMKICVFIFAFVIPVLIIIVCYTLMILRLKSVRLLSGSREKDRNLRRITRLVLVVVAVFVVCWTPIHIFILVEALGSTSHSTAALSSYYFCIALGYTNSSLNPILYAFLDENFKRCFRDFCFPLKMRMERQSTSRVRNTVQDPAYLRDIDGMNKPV

Structure (SMILES)	Ki [1] [nM]	KOR agonist (average percent efficacy relative to cognate agonist) [2] [%]	Emax values relative to U69593 [2] [%]	Ki [3] [nM]	Ki [4] [nM]
O=C(Nc1ccc(Cl)c(C(F)(F)F)c1)[C@@H]1CC=C[C@@H]2CCN(C3CC3)C(=O)[C@@H]21 (racemic) [compound 8954]	493	66.4			
O=C(Nc1ccc(Br)c(C(F)(F)F)c1)[C@@H]1CC=C[C@@H]2CCN(c3ccccc3)C(=O)[C@@H]21 (racemic) [compound 11863]	12		95		
O=C(Nc1cc(C(F)(F)F)ccc1Cl)C1CC=CC2CCN(CCc3ccccc3)C(=O)C21 (racemic) [compound 11849]	1820			2410	
O=C(Nc1ccc(Cl)c(C(F)(F)F)c1)[C@@H]1CC=C[C@@H]2CCN(c3ccccc3)C(=O)[C@@H]21 (racemic) [compound 10825]	100		82		
COc1ccc(CNC(=O)[C@@H]2CC=C[C@@H]3CCN(C4CCCCC4)C(=O)[C@@H]32)cc1 (racemic) [compound 8926]	2690	29			
O=C(NCc1cccnc1)[C@@H]1CC=C[C@@H]2CCN(Cc3ccc(Cl)c(Cl)c3)C(=O)[C@@H]21 (racemic) [compound 8932]	693	74.6			
COc1ccc(NC(=O)[C@@H]2CC=C[C@@H]3CCN(C4CCCCC4)C(=O)[C@@H]32)cc1 (racemic) [compound 8945]	1790	54.3			5670
O=C(Nc1cc(C(F)(F)F)ccc1Cl)C1CC=CC2CCN(C3CCCCC3)C(=O)C21 (racemic) [compound 11837]	94		106		8020
CCCCN1CC[C@H]2C=CC[C@@H](C(=O)Nc3ccccc3)[C@H]2C1=O (racemic) [compound 8940]	677	112.1			6110
O=C(OCc1ccccc1)C(Cc1ccccc1)NC(=O)C1CC=CC2CCN(Cc3ccc(Cl)cc3)C(=O)C21 (mixture of isomers) [compound 11813]	1160			1910	
O=C(NCc1cccnc1)[C@@H]1CC=C[C@@H]2CCN(C3CCCCC3)C(=O)[C@@H]21 (racemic) [compound 8931]	552	67.7			
CCCCN1CC[C@H]2C=CC[C@@H](C(=O)NC3CCCCC3)[C@H]2C1=O (racemic) [compound 8923]	1030	67.6			
CCCCN1CC[C@H]2C=CC[C@@H](C(=O)Nc3ccc(Cl)cc3Cl)[C@H]2C1=O (racemic) [compound 8950]	1140	72.9			
O=C(NC1CCCCC1)[C@@H]1CC=C[C@@H]2CCN(C3CCCCC3)C(=O)[C@@H]21 (racemic) [compound 8922]	167	8			
O=C(Nc1ccc(F)c(F)c1)[C@@H]1CC=C[C@@H]2CCN(Cc3ccc(Cl)c(Cl)c3)C(=O)[C@@H]21 (racemic) [compound 5085]	2960			4660	
Cc1cc(NC(=O)[C@@H]2CC=C[C@@H]3CCN(CCc4ccccc4)C(=O)[C@@H]32)ccc1Cl (racemic) [compound 11878]	4120			1670	
COc1ccc(CN2CC[C@H]3C=CC[C@@H](C(=O)Nc4ccc(Cl)c(C(F)(F)F)c4)[C@H]3C2=O)cc1OC (racemic) [compound 8958]				2540	

Structure (SMILES)	Ki [1] [nM]	KOR agonist (average percent efficacy relative to cognate agonist) [2] [%]	Emax values relative to U69593 [2] [%]	Ki [3] [nM]	Ki [4] [nM]
O=C(NC1CCCCC1)[C@@H]1CC=C[C@@H]2CCN(Cc3ccccc3)C(=O)[C@@H]21 (racemic) [compound 8920, 2-Benzyl-N-cyclohexyl-1-oxo-1,2,3,4,4a,7,8,8a-octahydroisoquinoline-8-carboxamide]	298	94.2			
O=C(Nc1ccccc1)[C@@H]1CC=C[C@@H]2CCN(C3CCCCC3)C(=O)[C@@H]21 (racemic) [compound 8939]	71	133.7			8940
COc1ccc(CNC(=O)[C@@H]2CC=C[C@@H]3CCN(Cc4ccccc4)C(=O)[C@@H]32)cc1 (racemic) [compound 8924]	3730	18.8			
O=C(Nc1cccc(Cl)c1)[C@@H]1CC=C[C@@H]2CCN(CC3CCCCC3)C(=O)[C@@H]21 (racemic) [compound 11888]	68		70		
O=C(Nc1ccc(Cl)cc1C(F)(F)F)[C@@H]1CC=C[C@@H]2CCN(c3ccccc3)C(=O)[C@@H]21 (racemic) [compound 11864]	68		119		
O=C([C@@H]1CC=C[C@@H]2CCN(C3CC3)C(=O)[C@@H]21)N1CCN(c2ccccc2)CC1 (racemic) [compound 8913]	3190	27.5			
COc1ccc(NC(=O)[C@@H]2CC=C[C@@H]3CCN(Cc4ccccc4)C(=O)[C@@H]32)cc1 (racemic) [compound 8943]	883	72.9			
CCCCN1CC[C@H]2C=CC[C@@H](C(=O)NCCc3ccccc3)[C@H]2C1=O (racemic) [compound 8918]	3270	12.6			
O=C(NCc1ccc(Cl)c(C(F)(F)F)c1)[C@@H]1CC=C[C@@H]2CCN(c3ccccc3)C(=O)[C@@H]21 (racemic) [compound 11862]	98		81		
O=C(Nc1ccc(Cl)cc1Cl)[C@@H]1CC=C[C@@H]2CCN(C3CCCCC3)C(=O)[C@@H]21 (racemic) [compound 8949]	506	67.9			
O=C(Nc1ccccc1)[C@@H]1CC=C[C@@H]2CCN(C3CC3)C(=O)[C@@H]21 (racemic) [compound 8938]	1400	21.8			
Cc1cc(NC(=O)[C@@H]2CC=C[C@@H]3CCN(c4ccccc4)C(=O)[C@@H]32)ccc1Cl (racemic) [compound 11866]	33.5		123		
O=C(Nc1ccc(Cl)cc1Cl)[C@@H]1CC=C[C@@H]2CCN(Cc3ccc(Cl)c(Cl)c3)C(=O)[C@@H]21 (racemic) [compound 8951]	2440	23.2			
CCCCNC(=O)[C@@H]1CC=C[C@@H]2CCN(CCCC)C(=O)[C@@H]21 (racemic) [compound 8919]	2810	40.3			
O=C([C@@H]1CC=C[C@@H]2CCN(C3CCCCC3)C(=O)[C@@H]21)N1CCOCC1 (racemic) [compound 8910]	2950	42.7			
O=C(Nc1ccc(Cl)c(C(F)(F)F)c1)[C@@H]1CC=C[C@@H]2CCN(C3CCCCC3)C(=O)[C@@H]21 (racemic) [compound 8955]	111	93.2			
CCCCN1CC[C@H]2C=CC[C@@H](C(=O)Nc3ccc(OC)cc3)[C@H]2C1=O (racemic) [compound 8946]	5040	23.5			
